Our source for the IC50 values is patent US11834460B2, “Imide-based modulators of proteolysis and associated methods of use” (YALE UNIVERSITY, priority 2018, dated 2023).

For the test, the system named is c-Myc. The test can be described thus: c-Myc ELISA assay protocol in 22RV-1 cells. Type of test: cell-based, human. Particulars: 18 h, read-out: cMyc IC50. As for the experimental part: In each bioassay, cells were treated with varying amounts of compounds encompassed by the present disclosure, as shown in Table 1. The degradation of the following proteins were evaluated in this study: TANK-binding kinase 1 (TBK1), estrogen receptor α (ERα), bromodomain-containing protein 4 (BRD4), androgen receptor (AR), and c-Myc.
5. c-Myc ELISA Assay Protocol
22RV-1 cells were purchased from ATCC and cultured in RPMI+10% FBS media. Cells were harvested using trypsin (Gibco #25200-114), counted and seeded at 30,000 cells/well at a volume of 75 μL/well in RPMI +10% FBS media in 96-well plates. The cells were dosed with compounds diluted in 0.1% DMSO, incubated for 18 h then washed and lysed in 50 uL RIPA buffer (50 mM Tris pH8, 150 mM NaCl, 1% Tx-100, 0.1% SDS, 0.5% sodium deoxycholate) supplemented with protease and phosphatase inhibitors. The lysates were clarified at 4000 rpm at 4° C. for 10 minutes then aliquots were added into a 96-well ELISA plate of Novex Human c-myc ELISA kit from Life Technologies Catalog #KHO2041. 50 ul of c-Myc Detection antibody was added into every well, the plates incubated at room temperature for 3 hrs, then washed with ELISA wash buffer. 100 uL of the anti-rabbit IgG-HRP secondary antibody was added to each well and incubated at room temperature for 30 minutes. The plates were washed with ELISA wash buffer, 100 μL TMB added to each well, and then monitored every 5 minutes for a color change. 100 μL of stop solution is added and the plates read at 450 nm.
(ELISA stands for enzyme-linked immunosorbent assay.)

Structures are written as SMILES.

Regarding `Cc1sc2c(c1C)C(c1ccc(Cl)cc1)=N[C@@H](CC(=O)N[C@@H](C)c1ccc(OCCCCNc3cccc4c3C(=O)N(C3CCC(=O)NC3=O)C4=O)cc1)c1nnc(C)n1-2` (stereo partly drawn) [Compound 23, 2-((9S)-7-(4-chlorophenyl)-4,5,13-trimethyl-3-thia-1,8,11,12-tetraazatricyclo [8.3.0.02,6]trideca-2(6),4,7,10, 12-pentaen-9-yl)-N-((1S)-1-(4-(4-((2-(2,6-dioxopiperidin-3-yl)-1,3-dioxo-2,3-dihydro-1H-isoindol-4-yl)amino)butoxy)phenyl)ethyl) acetamide], the IC50 is greater than 50 nM.

On to `Cc1sc2c(c1C)C(c1ccc(Cl)cc1)=N[C@@H](CC(=O)NCCCOCCCNc1cccc3c1C(=O)N(C1CCC(=O)NC1=O)C3=O)c1nnc(C)n1-2` (stereo partly drawn) [Compound 24, 2-((9S)-7-(4-chlorophenyl)-4,5,13-trimethyl-3-thia-1,8,11,12-tetraazatricyclo [8.3.0.02,6]trideca-2(6),4,7,10, 12-pentaen-9-yl)-N-(3-(3-((2-(2,6-dioxopiperidin-3-yl)-1,3-dioxo-2,3-dihydro-1H-isoindol-4-yl)amino)propoxy)propyl)acetamide], for which the 50% inhibitory concentration (IC50) was less than 50 nM.

Turning to `Cc1sc2c(c1C)C(c1ccc(Cl)cc1)=N[C@@H](CC(=O)NCCCNc1cccc3c1C(=O)N(C1CCC(=O)NC1=O)C3=O)c1nnc(C)n1-2` (stereo partly drawn) [Compound 25, 2-((9S)-7-(4-chlorophenyl)-4,5,13-trimethyl-3-thia-1,8,11,12-tetraazatricyclo [8.3.0.02,6]trideca-2(6),4,7,10,12-pentaen-9-yl)-N-(3-((2-(2,6-dioxopiperidin-3-yl)-1,3-dioxo-2,3-dihydro-1H-isoindol-4-yl)amino)propyl) acetamide], the IC50 is greater than 50 nM.

Consider `Cc1sc2c(c1C)C(c1ccc(Cl)cc1)=N[C@@H](CC(=O)NCCOCCNc1cccc3c1C(=O)N(C1CCC(=O)NC1=O)C3=O)c1nnc(C)n1-2` (stereo partly drawn) [Compound 27, 2-((9S)-7-(4-chlorophenyl)-4,5,13-trimethyl-3-thia-1,8,11,12-tetraazatricyclo [8.3.0.02,6]trideca-2(6),4,7,10,12-pentaen-9-yl)-N-(2-(2-((2-(2,6-dioxopiperidin-3-yl)-1,3-dioxo-2,3-dihydro-1H-isoindol-4-yl)amino)ethoxy)ethyl)acetamide], for which the half-maximal inhibitory concentration (IC50) is less than 50 nM.

In the case of `Cc1sc2c(c1C)C(c1ccc(Cl)cc1)=N[C@@H](CC(=O)N[C@H](C)c1ccc(OCCCCNc3cccc4c3C(=O)N(C3CCC(=O)NC3=O)C4=O)cc1)c1nnc(C)n1-2` (stereo partly shown) [Compound 28], the IC50 was less than 50 nM.

For the molecule `Cc1sc2c(c1C)C(c1ccc(Cl)cc1)=N[C@@H](CC(=O)N[C@H](C)c1ccc(OCCOCCNc3cccc4c3C(=O)N(C3CCC(=O)NC3=O)C4=O)cc1)c1nnc(C)n1-2` (stereo partly drawn) [Compound 29, 2-((9S)-7-(4-chlorophenyl)-4,5,13-trimethyl-3-thia-1,8,11,12-tetraazatricyclo [8.3.0.02,6]trideca-2(6),4,7,10, 12-pentaen-9-yl) N-((1R)-1-(4-(2-(2-((2-(2,6-dioxopiperidin-3-yl)-1,3-dioxo-2,3-dihydro-1H-isoindol-4-yl)amino)ethoxy)ethoxy)phenyl)ethyl) acetamide], the IC50 was less than 50 nM.

On to `Cc1sc2c(c1C)C(c1ccc(Cl)cc1)=N[C@@H](CC(=O)N[C@H](C)c1ccc(OCCCNc3cccc4c3C(=O)N(C3CCC(=O)NC3=O)C4=O)cc1)c1nnc(C)n1-2` (stereo partly drawn) [Compound 30, 2-((9S)-7-(4-chlorophenyl)-4,5,13-trimethyl-3-thia-1,8,11,12-tetraazatricyclo [8.3.0.02,6]trideca-2(6),4,7,10, 12-pentaen-9-yl)-N-((1R)-1-(4-(3-((2-(2,6-dioxopiperidin-3-yl)-1,3-dioxo-2,3-dihydro-1H-isoindol-4-yl)amino)propoxy)phenyl)ethyl) acetamide], for which the IC50 is less than 50 nM.

The term IC50 denotes the concentration that gives 50% inhibition.
